From PubChem BioAssay (NCI)
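96-well plates; 48 h exposure; 5 concentrations. Endpoints by linear interpolation between flanking doses. Not reached: highest tested concentration assigned. Definition used: TGI = concentration required for complete inhibition of growth.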

Key:
Experiment in all cases: growth of human tumour cells (NCI), 48 h
A549 NSCLC = system: A549 NSCLC
BT-549 breast = system: BT-549 breast
COLO 205 colon = system: COLO 205 colon
HOP-62 NSCLC = system: HOP-62 NSCLC
KM12 colon = system: KM12 colon
LOX IMVI melanoma = system: LOX IMVI melanoma
MALME-3M melanoma = system: MALME-3M melanoma
MDA-N = system: MDA-N
NCI-H226 lung = system: NCI-H226 lung
PC-3 prostate = system: PC-3 prostate
RXF 393 renal = system: RXF 393 renal
SK-OV-3 ovarian = system: SK-OV-3 ovarian
SW-620 colon = system: SW-620 colon
NCI-H522 lung = system: NCI-H522 lung
SN12C renal = system: SN12C renal

Compound	TGI (A549 NSCLC) [µM]	TGI (BT-549 breast) [µM]	TGI (COLO 205 colon) [µM]	TGI (HOP-62 NSCLC) [µM]	TGI (KM12 colon) [µM]	TGI (LOX IMVI melanoma) [µM]	TGI (MALME-3M melanoma) [µM]	TGI (MDA-N) [µM]	TGI (NCI-H226 lung) [µM]	TGI (PC-3 prostate) [µM]	TGI (RXF 393 renal) [µM]	TGI (SK-OV-3 ovarian) [µM]	TGI (SW-620 colon) [µM]	TGI (NCI-H522 lung) [µM]	TGI (SN12C renal) [µM]
O=C(O)CN1CCCC(Cc2c[nH]c3ccccc23)C1 (stereo not given)	> 100	> 100	> 100	> 100	> 100	> 100	> 100	> 100	> 100	> 100	> 100	> 100	> 100		
C/C(=N/NC(=S)Nc1cccc(Cl)c1)c1ccccn1	10.1	16	5.18	3.5	13.5	9.49	10	15.5	2.59	15.1	9.76	10.4	17.9	2.41	7.04
CSc1c2c(C)n[nH]c2nn1-c1ccccc1	> 100	> 100	> 100		> 100	> 100	> 100	> 100	> 100	> 100	> 100	> 100	> 100	> 100	> 100
Oc1cc(Cl)cc2cc(Cl)cnc12	> 100	> 100	> 100	89.9	> 100	13.1	34.9	> 100	92.2	> 100	48.2	> 100	> 100	24.3	> 100
CC(C)(C)c1cc(C(=O)C2Cc3ccccc3C(=O)O2)cc(C(C)(C)C)c1O (stereo not given)	54.4	42.6	33.1	30.8	32.1	26.5	29.6	23.9	35.5	28.2	27.7	56.3	50.4	27.8	26.5
N#C/C=c1/c2ccccc2n2nc3ccccc3c12	> 100	> 100	85.3	44.4	68.3	> 100	> 100	> 100		> 100	58.6	22.9	> 100	38	> 100
O=C1CCCCC/C1=C\c1cccc([N+](=O)[O-])c1	> 100	72.8	> 100	> 100	56.1		72.4	> 100		> 100	93.1	> 100	> 100		> 100
O=C(CNc1nccs1)Nn1cnc2ccc(S(=O)(=O)Nc3nccs3)cc2c1=O	> 100	> 100	> 100	> 100	> 100	> 100	> 100	> 100	> 100	> 100		> 100	> 100	> 100	> 100
CCn1c(-c2ccc(OC)cc2)nc2c1C(=O)c1ccccc1C2=O	> 100	> 100	> 100	> 100	> 100		> 100	> 100	> 100	> 100	> 100	> 100	> 100	> 100	> 100
COC1=CC(=O)c2c(cc(COP(N)(=O)N(CCCl)CCCl)n2C)C1=O (stereo not given)	4.31	2.14	3.08	7.88	5.02	1.73	3.15	4.09	1.32	10.1	2.95	5.9	4.21	0.802	1.31
Oc1cc(O)c2c(c1)O[C@H](c1cc(O)c(O)c(O)c1)[C@@H](O)C2	> 100	51.5	35.8	34		37.9	> 100	44.2	86.5	76.2	30.7	74.7	32.7	35.1	33
C/C(=N/NC(=S)N(C)C)c1ccccc1O	> 100	> 100	> 58.6	> 100	> 100	> 75.1	> 76.1	> 100	> 66.3	> 100	> 100	> 100	> 100	> 100	> 100
